Key:
CDK2 = biological target: T1, CDK2 (Homo sapiens, UniProt P24941); assay: CDK protein degradation activity (Western blotting), CDK2; assay type: cell-based; conditions: MDA-MB-231 cells, 16 hours, Western blot
T1 construct: endogenous in cells; host or cells: MDA-MB-231
In short: (§1)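 Breast cancer line MDA-MB-231, 16 h compound treatment (100 nM–10 μM final, three doses). Immunoblot quantification of CDK2/CDK9 versus tubulin, normalized to DMSO control.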

CDK9 = biological target: T2, CDK9 (Homo sapiens, UniProt P50750); assay: CDK protein degradation activity (Western blotting), CDK9; assay type: cell-based; conditions: MDA-MB-231 cells, 16 hours, Western blot
T2 construct: endogenous in cells; host or cells: MDA-MB-231
T2 sequence (P50750 whole entry): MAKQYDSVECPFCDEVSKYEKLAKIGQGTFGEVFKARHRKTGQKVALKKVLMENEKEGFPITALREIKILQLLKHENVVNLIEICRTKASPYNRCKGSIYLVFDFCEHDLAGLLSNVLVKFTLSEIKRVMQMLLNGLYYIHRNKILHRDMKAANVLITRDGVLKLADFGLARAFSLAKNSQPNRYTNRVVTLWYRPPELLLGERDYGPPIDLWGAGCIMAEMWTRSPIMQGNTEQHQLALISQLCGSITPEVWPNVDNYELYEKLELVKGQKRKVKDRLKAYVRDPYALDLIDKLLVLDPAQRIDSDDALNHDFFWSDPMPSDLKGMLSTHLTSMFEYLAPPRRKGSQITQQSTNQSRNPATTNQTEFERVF
In short: as §1

O=C1CC[C@H](N2C(=O)c3ccc(N4CCN(CCC5CCN(c6ccc(Nc7ncnc8c7ncn8[C@H]7C[C@@H](NC(=O)Cc8ccccc8)C7)cc6)CC5)CC4)cc3C2=O)C(=O)N1 [Compound 338, N-((1s,3s)-3-(6-((4-(4-(2-(4-(2-(2,6-dioxopiperidin-3-yl)-1,3-dioxoisoindolin-5-yl)piperazin-1-yl)ethyl)piperidin-1-yl)phenyl)amino)-9H-purin-9-yl)cyclobutyl)-2-phenylacetamide]
Enzyme degradation CDK2 (% remaining) @ 0.1 μM (CDK2): 10% | Enzyme degradation CDK2 (% remaining) @ 1 μM (CDK2): 0% | Enzyme degradation CDK2 (% remaining) @ 10 μM (CDK2): 0% | Enzyme degradation CDK9 (% remaining) @ 0.1 μM (CDK9): 50% | Enzyme degradation CDK9 (% remaining) @ 1 μM (CDK9): 0% | Enzyme degradation CDK9 (% remaining) @ 10 μM (CDK9): 0%

O=C1CC[C@H](N2C(=O)c3ccc(N4CCC(CCN5CCN(c6ccc(Nc7ncnc8c7ncn8[C@H]7C[C@@H](NC(=O)c8c(Cl)cccc8Cl)C7)cc6)CC5)CC4)cc3C2=O)C(=O)N1 [Compound 405, 2,6-dichloro-N-((1s,3s)-3-(6-((4-(4-(2-(1-(2-(2,6-dioxopiperidin-3-yl)-1,3-dioxoisoindolin-5-yl)piperidin-4-yl)ethyl)piperazin-1-yl)phenyl)amino)-9H-purin-9-yl)cyclobutyl)benzamide]
Enzyme degradation CDK2 (% remaining) @ 0.1 μM (CDK2): 50/50/50% | Enzyme degradation CDK2 (% remaining) @ 1 μM (CDK2): 50/50/50% | Enzyme degradation CDK2 (% remaining) @ 10 μM (CDK2): 50/50/50% | Enzyme degradation CDK9 (% remaining) @ 0.1 μM (CDK9): 0/0/0% | Enzyme degradation CDK9 (% remaining) @ 1 μM (CDK9): 0/0/0% | Enzyme degradation CDK9 (% remaining) @ 10 μM (CDK9): 0/0/0%

O=C1CC[C@H](N2C(=O)c3ccc(OCC(=O)N4CCN(CCCN5CCN(c6ccc(Nc7ncnc8c7ncn8[C@H]7C[C@@H](NC(=O)Cc8ccccc8)C7)cc6)CC5)CC4)cc3C2=O)C(=O)N1 [Compound 234, N-((1s,3s)-3-(6-((4-(4-(3-(4-(2-((2-(2,6-dioxopiperidin-3-yl)-1,3-dioxoisoindolin-5-yl)oxy)acetyl)piperazin-1-yl)propyl)piperazin-1-yl)phenyl)amino)-9H-purin-9-yl)cyclobutyl)-2-phenylacetamide]
Enzyme degradation CDK2 (% remaining) @ 0.1 μM (CDK2): 100% | Enzyme degradation CDK2 (% remaining) @ 1 μM (CDK2): 80% | Enzyme degradation CDK2 (% remaining) @ 10 μM (CDK2): 70% | Enzyme degradation CDK9 (% remaining) @ 0.1 μM (CDK9): 60% | Enzyme degradation CDK9 (% remaining) @ 1 μM (CDK9): 40% | Enzyme degradation CDK9 (% remaining) @ 10 μM (CDK9): 0%

O=C1CC[C@@H](c2ccc(OCC(=O)N3CCC4(CC3)CC(N3CCN(c5ccc(Nc6ncnc7c6ncn7[C@H]6C[C@@H](NC(=O)c7c(Cl)cccc7Cl)C6)cc5)CC3)C4)cc2)C(=O)N1 [Compound 442, 2,6-dichloro-N-((1s,3s)-3-(6-((4-(4-(7-(2-(4-(2,6-dioxopiperidin-3-yl)phenoxy)acetyl)-7-azaspiro[3.5]nonan-2-yl)piperazin-1-yl)phenyl)amino)-9H-purin-9-yl)cyclobutyl)benzamide]
Enzyme degradation CDK2 (% remaining) @ 0.1 μM (CDK2): 40/40/40% | Enzyme degradation CDK2 (% remaining) @ 1 μM (CDK2): 40/40/40% | Enzyme degradation CDK2 (% remaining) @ 10 μM (CDK2): 40/40/40% | Enzyme degradation CDK9 (% remaining) @ 0.1 μM (CDK9): 0/0/0% | Enzyme degradation CDK9 (% remaining) @ 1 μM (CDK9): 0/0/0% | Enzyme degradation CDK9 (% remaining) @ 10 μM (CDK9): 0/0/0%

O=C1CC[C@H](N2C(=O)c3cccc(N4CCC5(CC4)CC(N4CCC(c6ccc(Nc7ncnc8c7ncn8C7CC(NC(=O)Cc8ccccc8)C7)cc6)CC4)C5)c3C2=O)C(=O)N1 (stereo partly drawn) [Compound 297, N-((1s,3s)-3-(6-((4-(1-(7-(2-(2,6-dioxopiperidin-3-yl)-1,3-dioxoisoindolin-4-yl)-7-azaspiro[3.5]nonan-2-yl)piperidin-4-yl)phenyl)amino)-9H-purin-9-yl)cyclobutyl)-2-phenylacetamide]
Enzyme degradation CDK2 (% remaining) @ 0.1 μM (CDK2): 20% | Enzyme degradation CDK2 (% remaining) @ 1 μM (CDK2): 40% | Enzyme degradation CDK2 (% remaining) @ 10 μM (CDK2): 40% | Enzyme degradation CDK9 (% remaining) @ 0.1 μM (CDK9): 10% | Enzyme degradation CDK9 (% remaining) @ 1 μM (CDK9): 0% | Enzyme degradation CDK9 (% remaining) @ 10 μM (CDK9): 0%

O=C1CC[C@H](N2C(=O)c3ccc(OCC(=O)N4CCN(CC5CCN(c6ccc(Nc7ncnc8c7ncn8C7CC(NC(=O)c8c(Cl)cccc8Cl)C7)cc6)CC5)CC4)cc3C2=O)C(=O)N1 (stereo partly drawn) [Compound 325, 2,6-dichloro-N-((1s,3s)-3-(6-((4-(4-((4-(2-((2-(2,6-dioxopiperidin-3-yl)-1,3-dioxoisoindolin-5-yl)oxy)acetyl)piperazin-1-yl)methyl)piperidin-1-yl)phenyl)amino)-9H-purin-9-yl)cyclobutyl)benzamide]
Enzyme degradation CDK2 (% remaining) @ 0.1 μM (CDK2): 40% | Enzyme degradation CDK2 (% remaining) @ 1 μM (CDK2): 60% | Enzyme degradation CDK2 (% remaining) @ 10 μM (CDK2): 60% | Enzyme degradation CDK9 (% remaining) @ 0.1 μM (CDK9): 80% | Enzyme degradation CDK9 (% remaining) @ 1 μM (CDK9): 0% | Enzyme degradation CDK9 (% remaining) @ 10 μM (CDK9): 0%

O=C1CC[C@H](N2C(=O)c3ccc(N4CCC(CCCN5CCN(c6ccc(Nc7ncnc8c7ncn8C7CC(NC(=O)Cc8ccccc8)C7)cc6)CC5)CC4)cc3C2=O)C(=O)N1 (stereo partly drawn) [Compound 262, N-((1s,3s)-3-(6-((4-(4-(3-(1-(2-(2,6-dioxopiperidin-3-yl)-1,3-dioxoisoindolin-5-yl)piperidin-4-yl)propyl)piperazin-1-yl)phenyl)amino)-9H-purin-9-yl)cyclobutyl)-2-phenylacetamide]
Enzyme degradation CDK2 (% remaining) @ 0.1 μM (CDK2): 70% | Enzyme degradation CDK2 (% remaining) @ 1 μM (CDK2): 90% | Enzyme degradation CDK2 (% remaining) @ 10 μM (CDK2): 100% | Enzyme degradation CDK9 (% remaining) @ 0.1 μM (CDK9): 40% | Enzyme degradation CDK9 (% remaining) @ 1 μM (CDK9): 30% | Enzyme degradation CDK9 (% remaining) @ 10 μM (CDK9): 10%

O=C1CC[C@H](N2C(=O)c3ccc(N4CCN(CC=CCN5CCC6(CC5)CC(N5CCN(c7ccc(Nc8ncnc9c8ncn9C8CC(NC(=O)Cc9ccccc9)C8)cc7)CC5)C6)CC4)cc3C2=O)C(=O)N1 (stereo partly drawn) [Compound 479, N-((1s,3s)-3-(6-((4-(4-(7-(4-(4-(2-(2,6-dioxopiperidin-3-yl)-1,3-dioxoisoindolin-5-yl)piperazin-1-yl)but-2-en-1-yl)-7-azaspiro[3.5]nonan-2-yl)piperazin-1-yl)phenyl)amino)-9H-purin-9-yl)cyclobutyl)-2-phenylacetamide]
Enzyme degradation CDK2 (% remaining) @ 0.1 μM (CDK2): 50% | Enzyme degradation CDK2 (% remaining) @ 1 μM (CDK2): 60% | Enzyme degradation CDK2 (% remaining) @ 10 μM (CDK2): 60% | Enzyme degradation CDK9 (% remaining) @ 0.1 μM (CDK9): 30% | Enzyme degradation CDK9 (% remaining) @ 1 μM (CDK9): 20% | Enzyme degradation CDK9 (% remaining) @ 10 μM (CDK9): 20%

CC(=O)N[C@H]1C[C@@H](n2cnc3c(NCc4ccc(N5CCN(CC6CCN(C(=O)CNc7ccc8c(c7)C(=O)N([C@H]7CCC(=O)NC7=O)C8=O)CC6)CC5)cc4)ncnc32)C1 [Compound 161, N-((1s,3s)-3-(6-((4-(4-((1-((2-(2,6-dioxopiperidin-3-yl)-1,3-dioxoisoindolin-5-yl)glycyl)piperidin-4-yl)methyl)piperazin-1-yl)benzyl)amino)-9H-purin-9-yl)cyclobutyl)acetamide]
Enzyme degradation CDK2 (% remaining) @ 0.1 μM (CDK2): 90% | Enzyme degradation CDK2 (% remaining) @ 1 μM (CDK2): 80% | Enzyme degradation CDK2 (% remaining) @ 10 μM (CDK2): 60% | Enzyme degradation CDK9 (% remaining) @ 0.1 μM (CDK9): 30% | Enzyme degradation CDK9 (% remaining) @ 1 μM (CDK9): 10% | Enzyme degradation CDK9 (% remaining) @ 10 μM (CDK9): 10%

Cc1cccc(C(=O)N[C@H]2C[C@@H](n3cnc4c(NCc5ccc(OCCCN6CCN(c7cccc8c7C(=O)N([C@H]7CCC(=O)NC7=O)C8=O)CC6)cc5)ncnc43)C2)n1 [Compound 117, N-((1s,3s)-3-(6-((4-(3-(4-(2-(2,6-dioxopiperidin-3-yl)-1,3-dioxoisoindolin-4-yl)piperazin-1-yl)propoxy)benzyl)amino)-9H-purin-9-yl)cyclobutyl)-6-methylpicolinamide]
Enzyme degradation CDK2 (% remaining) @ 0.1 μM (CDK2): 80/80/80% | Enzyme degradation CDK2 (% remaining) @ 1 μM (CDK2): 80/80/80% | Enzyme degradation CDK2 (% remaining) @ 10 μM (CDK2): 80/80/80% | Enzyme degradation CDK9 (% remaining) @ 0.1 μM (CDK9): 10% | Enzyme degradation CDK9 (% remaining) @ 1 μM (CDK9): 10% | Enzyme degradation CDK9 (% remaining) @ 10 μM (CDK9): 0%

O=C1CC[C@H](N2C(=O)C=C(N3CCC(C(=O)N4CCC5(CC4)CC(N4CCN(c6ccc(Nc7ncnc8c7ncn8C7CC(NC(=O)Cc8ccccc8)C7)cc6)CC4)C5)CC3)C2=O)C(=O)N1 (stereo partly drawn) [Compound 193, N-((1s,3s)-3-(6-((4-(4-(7-(1-(1-(2,6-dioxopiperidin-3-yl)-2,5-dioxo-2,5-dihydro-1H-pyrrol-3-yl)piperidin-4-carbonyl)-7-azaspiro[3.5]nonan-2-yl)piperazin-1-yl)phenyl)amino)-9H-purin-9-yl)cyclobutyl)-2-phenylacetamide]
Enzyme degradation CDK2 (% remaining) @ 0.1 μM (CDK2): 20% | Enzyme degradation CDK2 (% remaining) @ 1 μM (CDK2): 20% | Enzyme degradation CDK2 (% remaining) @ 10 μM (CDK2): 10% | Enzyme degradation CDK9 (% remaining) @ 0.1 μM (CDK9): 0% | Enzyme degradation CDK9 (% remaining) @ 1 μM (CDK9): 10% | Enzyme degradation CDK9 (% remaining) @ 10 μM (CDK9): 10%

Source: patent US20260125382A1, “COMPOUNDS FOR INHIBITING OR DEGRADING CDK2 AND/OR CDK9 AND MEDICINAL USE THEREOF” (KOREA RESEARCH INSTITUTE OF CHEMICAL TECHNOLOGY, priority 2022, published 2026)
